According to patent US20260125378A2, “Heterocyclic Compounds” (BeOne Medicines I GmbH, priority 2023, published 2026):

How the values were obtained:
[1] = biological target: T1, Full length DGKζ (in-house protein M1-V929) (Homo sapiens, UniProt Q13574); experiment: Biochemical DGK IC50 assay (ADP-Glo, lipid micelle substrate), DGKζ; details: 1 hour preincubation, 1 hour reaction, room temperature
T1 construct: His (N); TEV site (N); made in house; host or cells: Sf9 insect cells (Bac-to-Bac baculovirus)
How it was run: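 Full-length human DGKζ (M1-V929, His-TEV tagged, Sf9 baculovirus-expressed) with DAG/PS lipid micelle substrate in octyl glucoside, at room temperature in 50 mM HEPES, 10 mM MgCl2, 0.01 mM CaCl2 buffer.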

[2] = biological target: T2, Full length DGKα (D21-10BG, SignalChem) (Homo sapiens, UniProt P23743); experiment: Biochemical DGK IC50 assay (ADP-Glo, lipid micelle substrate), DGKα; details: 1 hour preincubation, 1 hour reaction, room temperature
T2 construct: Full length DGKα (D21-10BG, SignalChem); purchased SignalChem D21-10BG
How it was run: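 Full-length human DGKα with DAG/PS lipid micelle substrate (in octyl glucoside buffer), reacted 1 h at room temperature in 50 mM HEPES, 10 mM MgCl2, 0.01 mM CaCl2, 0.1 mM Na3VO4, 0.01% BSA, 0.005% Tween-20. ADP formed read by ADP-Glo luminescence; IC50 from inhibition across increasing compound concentrations.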

T1 sequence (Q13574 1-929 isoform Q13574-4): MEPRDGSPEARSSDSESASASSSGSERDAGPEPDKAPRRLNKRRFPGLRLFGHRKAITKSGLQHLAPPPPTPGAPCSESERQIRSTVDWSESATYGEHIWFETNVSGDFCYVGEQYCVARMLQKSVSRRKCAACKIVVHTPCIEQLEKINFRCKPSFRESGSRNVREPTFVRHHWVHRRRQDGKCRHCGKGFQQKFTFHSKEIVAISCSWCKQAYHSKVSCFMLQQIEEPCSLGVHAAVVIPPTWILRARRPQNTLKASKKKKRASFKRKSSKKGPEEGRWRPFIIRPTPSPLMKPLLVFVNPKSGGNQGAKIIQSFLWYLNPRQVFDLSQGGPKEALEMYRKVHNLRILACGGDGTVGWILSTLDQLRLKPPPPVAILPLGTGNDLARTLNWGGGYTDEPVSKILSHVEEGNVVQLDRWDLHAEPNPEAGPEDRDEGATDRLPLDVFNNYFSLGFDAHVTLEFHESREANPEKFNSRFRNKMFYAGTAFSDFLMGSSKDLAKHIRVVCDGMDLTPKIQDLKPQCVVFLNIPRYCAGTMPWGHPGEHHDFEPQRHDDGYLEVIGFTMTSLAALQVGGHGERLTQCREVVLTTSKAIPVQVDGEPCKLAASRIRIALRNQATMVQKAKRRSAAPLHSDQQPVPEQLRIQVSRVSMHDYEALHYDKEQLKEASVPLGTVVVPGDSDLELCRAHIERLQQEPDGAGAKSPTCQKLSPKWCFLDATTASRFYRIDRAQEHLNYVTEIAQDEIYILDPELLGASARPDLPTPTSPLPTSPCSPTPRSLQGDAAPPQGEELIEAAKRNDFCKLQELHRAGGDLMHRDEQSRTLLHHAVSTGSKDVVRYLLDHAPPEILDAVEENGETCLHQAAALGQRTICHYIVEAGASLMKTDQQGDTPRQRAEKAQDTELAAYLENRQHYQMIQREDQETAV
T2 sequence (P23743 whole entry): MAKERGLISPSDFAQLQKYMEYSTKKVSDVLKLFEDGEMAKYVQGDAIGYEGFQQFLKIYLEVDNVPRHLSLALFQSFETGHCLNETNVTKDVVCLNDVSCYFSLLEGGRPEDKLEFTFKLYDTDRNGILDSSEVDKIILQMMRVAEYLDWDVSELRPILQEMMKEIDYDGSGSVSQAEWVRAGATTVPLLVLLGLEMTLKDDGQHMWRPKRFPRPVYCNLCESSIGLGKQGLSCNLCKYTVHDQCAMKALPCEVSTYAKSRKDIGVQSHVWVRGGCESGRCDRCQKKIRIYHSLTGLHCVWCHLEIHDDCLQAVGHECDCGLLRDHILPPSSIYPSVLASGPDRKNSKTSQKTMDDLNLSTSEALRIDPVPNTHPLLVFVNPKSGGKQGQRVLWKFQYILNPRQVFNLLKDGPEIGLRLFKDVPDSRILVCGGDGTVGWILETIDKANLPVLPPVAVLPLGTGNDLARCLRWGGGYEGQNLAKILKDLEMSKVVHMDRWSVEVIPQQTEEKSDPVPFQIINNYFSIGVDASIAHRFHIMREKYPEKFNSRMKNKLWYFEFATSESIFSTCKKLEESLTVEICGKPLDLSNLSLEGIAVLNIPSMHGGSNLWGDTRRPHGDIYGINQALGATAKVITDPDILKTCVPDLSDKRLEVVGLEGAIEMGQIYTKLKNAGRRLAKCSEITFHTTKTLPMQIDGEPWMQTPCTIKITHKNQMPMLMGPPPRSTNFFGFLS

| SMILES | IC50 [1] [µM] | IC50 [2] [µM] |
| --- | --- | --- |
| CCn1c(CC#N)nc2c(N3C[C@@H](C)N(C(C)c4cccc(CN5CCOCC5)c4)C[C@@H]3C)nc(=O)n(C)c21 (stereo partly drawn) [Compound A142, 2-(6-((2S,5R)-2,5-dimethyl-4-(1-(3-(morpholinomethyl)phenyl)ethyl)piperazin-1-yl)-9-ethyl-3-methyl-2-oxo-3,9-dihydro-2H-purin-8-yl)acetonitrile] | 6.3 | > 150 |
| Cc1ccc(C(C)N2C[C@H](C)N(c3nc(=O)n(C)c4c3nc(CC#N)n4C)C[C@H]2C)c(C(F)(F)F)c1 (single isomer, unassigned) [Compound A32b] | 0.138 | 5.59 |
| Cc1cnc2ccc(C(C)N3C[C@H](C)N(c4nc(=O)n(C)c5c4nc(CC#N)n5C)C[C@H]3C)cc2n1 (single isomer, unassigned) [Compound A49b] | 0.4 | > 150 |
| CCn1c(CC#N)nc2c(N3C[C@@H](C)N(C(C)c4cc(C(F)(F)F)ccn4)C[C@@H]3C)nc(=O)n(C)c21 (stereo partly drawn) [Compound A120, 2-(6-((2S,5R)-2,5-dimethyl-4-(1-(4-(trifluoromethyl)pyridin-2-yl)ethyl)piperazin-1-yl)-9-ethyl-3-methyl-2-oxo-3,9-dihydro-2H-purin-8-yl)acetonitrile] | 1.28 | > 150 |
| CCn1c(CC#N)nc2c(N3C[C@@H](C)N(C(C)c4ccc5c(c4)C(=O)N(C)C5)C[C@@H]3C)nc(=O)n(C)c21 (stereo partly drawn) [Compound A100, 2-(6-((2S,5R)-2,5-dimethyl-4-(1-(2-methyl-3-oxoisoindolin-5-yl)ethyl)piperazin-1-yl)-9-ethyl-3-methyl-2-oxo-3,9-dihydro-2H-purin-8-yl)acetonitrile] | 4.11 | > 150 |
| CC(c1cccnc1C(F)(F)F)N1C[C@H](C)N(c2cc(=O)n(C)c3c2nc(CC#N)n3C)C[C@H]1C (single isomer, unassigned) [Compound A7a] | 3.11 | > 10 |
| CC(c1ccc(F)cc1C(F)(F)F)N1C[C@H](C)N(c2nc(=O)n(C)c3c2nc(CC#N)n3C)C[C@H]1C (single isomer, unassigned) [Compound A33a] | 0.804 | > 10 |
| CCn1c(CC#N)nc2c(N3C[C@@H](C)N(C(C)c4ccc5c(c4)OC(C)(C)O5)C[C@@H]3C)nc(=O)n(C)c21 (single isomer, unassigned) [Compound A85a] | 1.25 | 148 |
| Cc1ccc(C(C)N2C[C@H](C)N(c3nc(=O)n(C)c4c3nc(CC#N)n4C)C[C@H]2C)c(C(F)(F)F)c1 (single isomer, unassigned) [Compound A32a] | 3.74 | > 10 |
| CCn1c(CC#N)nc2c(N3C[C@@H](C)N(C(C)c4ccc5c(n4)OC(C)(C)C5)C[C@@H]3C)nc(=O)n(C)c21 (stereo partly drawn) [Compound A180, 2-(6-((2S,5R)-4-(1-(2,2-dimethyl-2,3-dihydrofuro[2,3-b]pyridin-6-yl)ethyl)-2,5-dimethylpiperazin-1-yl)-9-ethyl-3-methyl-2-oxo-3,9-dihydro-2H-purin-8-yl)acetonitrile] | 4.44 | > 150 |
| Cc1ccc(C(C)N2C[C@H](C)N(c3c(F)c(=O)n(C)c4c3nc(CC#N)n4C)C[C@H]2C)c(C(F)(F)F)c1 (single isomer, unassigned) [Compound A15b] | 0.291 | > 10 |
| CCn1c(CC#N)nc2c(N3C[C@@H](C)N(C(C)c4cc(F)c5c(c4)OC(C)(C)O5)C[C@@H]3C)nc(=O)n(C)c21 (mixture of isomers) [Compound A173, 2-(9-ethyl-6-((2S,5R)-4-(1-(7-fluoro-2,2-dimethylbenzo[d][1,3]dioxol-5-yl)ethyl)-2,5-dimethylpiperazin-1-yl)-3-methyl-2-oxo-3,9-dihydro-2H-purin-8-yl)acetonitrile] | 0.044 | 143 |
| CCn1c(CC#N)nc2c(N3C[C@@H](C)N(C(C)c4cccc(OC(C)C)n4)C[C@@H]3C)nc(=O)n(C)c21 (single isomer, unassigned) [Compound A117a] | 3.3 | > 150 |
| CCn1c(CC#N)nc2c(N3C[C@@H](C)N(C(C)c4ccc(CN5CCOCC5)cc4)C[C@@H]3C)nc(=O)n(C)c21 (stereo partly drawn) [Compound A139, 2-(6-((2S,5R)-2,5-dimethyl-4-(1-(4-(morpholinomethyl)phenyl)ethyl)piperazin-1-yl)-9-ethyl-3-methyl-2-oxo-3,9-dihydro-2H-purin-8-yl)acetonitrile] | 2.19 | 120 |
| CC#CC(c1ccc(C)cc1)N1C[C@H](C)N(c2nc(=O)n(C)c3c2nc(CC#N)n3CC)C[C@H]1C (stereo partly drawn) [Compound A145, 2-(6-((2S,5R)-2,5-dimethyl-4-(1-(p-tolyl)but-2-yn-1-yl)piperazin-1-yl)-9-ethyl-3-methyl-2-oxo-3,9-dihydro-2H-purin-8-yl)acetonitrile] | 0.48 | 5.62 |

The next molecules have a lower IC50 [1] than those just listed; values first:

| IC50 [1] [µM] | IC50 [2] [µM] | SMILES |
| --- | --- | --- |
| 0.04 | > 10 | CC(c1ccc2c(c1)OCCO2)N1C[C@H](C)N(c2nc(=O)n(C)c3c2nc(CC#N)n3C)C[C@H]1C (stereo partly drawn) [Compound A58, 2-(6-((2S,5R)-4-(1-(2,3-dihydrobenzo[b][1,4]dioxin-6-yl)ethyl)-2,5-dimethylpiperazin-1-yl)-3,9-dimethyl-2-oxo-3,9-dihydro-2H-purin-8-yl)acetonitrile] |
| 0.024 | 124 | CCn1c(CC#N)nc2c(N3C[C@@H](C)N(C(C)c4cccc(C5(C)CC5)c4)C[C@@H]3C)nc(=O)n(C)c21 (stereo partly drawn) [Compound A126, 2-(6-((2S,5R)-2,5-dimethyl-4-(1-(3-(1-methylcyclopropyl)phenyl)ethyl)piperazin-1-yl)-9-ethyl-3-methyl-2-oxo-3,9-dihydro-2H-purin-8-yl)acetonitrile] |
| 0.022 | 113 | CCn1c(CC#N)nc2c(N3C[C@@H](C)N(C(C)c4cccc(C(C)(C)C#N)c4)C[C@@H]3C)nc(=O)n(C)c21 (stereo partly drawn) [Compound A134, 2-(3-(1-((2R,5S)-4-(8-(cyanomethyl)-9-ethyl-3-methyl-2-oxo-3,9-dihydro-2H-purin-6-yl)-2,5-dimethylpiperazin-1-yl)ethyl)phenyl)-2-methylpropanenitrile] |
| 0.009 | > 10 | CC[C@H]1CN(C(C)c2ccc(F)cc2C(F)(F)F)[C@H](CC)CN1c1nc(=O)n(C)c2c1nc(CC#N)n2C (single isomer, unassigned) [Compound A34b] |
| 0.008 | 116 | CCn1c(CC#N)nc2c(N3C[C@@H](C)N(C(C)c4ccc5c(c4Cl)OC(C)(C)O5)C[C@@H]3C)nc(=O)n(C)c21 (single isomer, unassigned) [Compound A172b] |
| 0.008 | 61.9 | CC[C@@H]1CN(c2nc(=O)n(C)c3c2nc(CC#N)n3CC)[C@@H](C)CN1C(C)c1ccc2c(n1)OC(C)(C)CO2 (single isomer, unassigned) [Compound A158a] |
| 0.007 | 65.2 | CCn1c(CC#N)nc2c(N3C[C@@H](C)N(C(C)c4cccc(C(C)C)c4)C[C@@H]3C)nc(=O)n(C)c21 (single isomer, unassigned) [Compound A108a] |
| 0.0027 | 18.8 | COC[C@H]1CN(C(C)c2ccc3c(c2)OC(C)(C)CO3)[C@H](C)CN1c1nc(=O)n(C)c2c1nc(CC#N)n2C (single isomer, unassigned) [Compound A12a] |
| 0.002 | 20.3 | CC(c1cc(F)c2c(c1)OC(C)(C)CO2)N1C[C@H](C)N(c2nc(=O)n(C)c3c2nc(CC#N)n3C)C[C@H]1C (single isomer, unassigned) [Compound A68a] |
